Laboratory results: ChEMBL document CHEMBL4665816, “Syringoleosides A-H, Secoiridoids from Syringa dilatata Flowers and Their Inhibition of NO Production in LPS-Induced RAW 264.7 Cells” (J Nat Prod, 2020)

System: RAW264.7
Test: Anti-inflammatory activity in mouse RAW264.7 cells assessed as inhibition of LPS-induced NO production after 24 hrs by Griess reagent-based assay
Format: functional, cell-based
Details: RAW264.7, 24 h

| Structure (SMILES) | IC50 [µM] |
| --- | --- |
| C/C=C1/[C@H](O[C@@H]2O[C@H](CO)[C@@H](O)[C@H](O)[C@H]2O)OC=C(C(=O)OC)[C@H]1CC(=O)OC | > 80 |
| C/C=C1/[C@H](O[C@@H]2O[C@H](CO)[C@@H](O)[C@H](O)[C@H]2O)OC=C(C(=O)OC)[C@H]1CC(=O)OC[C@H]1O[C@@H](OCCc2ccccc2)[C@H](O)[C@@H](O)[C@@H]1O | 65.7 |
| C/C=C1/[C@H](O[C@@H]2O[C@H](CO)[C@@H](O)[C@H](O)[C@H]2O)OC=C(C(=O)OC)[C@H]1CC(=O)OC[C@H]1O[C@@H](OCc2ccccc2)[C@H](O)[C@@H](O)[C@@H]1O | 32.5 |
| C/C=C1/[C@H](O[C@@H]2O[C@H](CO)[C@@H](OC(=O)/C=C/c3ccc(O)c(O)c3)[C@H](O)[C@H]2O)OC=C(C(=O)OC)[C@H]1CC(=O)O[C@@H]1[C@@H](O)[C@@H](O)[C@H](O[C@H]2[C@H](O)[C@@H](O)[C@H](OCCc3ccc(O)c(O)c3)O[C@@H]2CO)O[C@H]1C | > 80 |
| C/C=C1/[C@H](O[C@@H]2O[C@H](CO)[C@@H](O)[C@H](O)[C@H]2O)OC=C(C(=O)OC)[C@H]1CC(=O)O[C@H]1[C@H](OCCc2ccc(O)c(O)c2)O[C@H](CO)[C@@H](O)[C@@H]1O[C@@H]1O[C@@H](C)[C@H](O)[C@@H](O)[C@H]1O | 42.1 |
| C/C=C1/[C@H](O[C@@H]2O[C@H](CO)[C@@H](O)[C@H](O)[C@H]2O)OC=C(C(=O)OC)[C@H]1CC(=O)O[C@H]1[C@H](O[C@@H]2OC=C(C(=O)OC)[C@@H](CC(=O)OC[C@H]3O[C@@H](OCCc4ccc(O)cc4)[C@H](O)[C@@H](O)[C@@H]3O)/C2=C\C)O[C@H](CO)[C@@H](O)[C@@H]1O | > 80 |
| C/C=C1/[C@H](O[C@@H]2O[C@H](CO)[C@@H](O)[C@H](O)[C@H]2O)OC=C(C(=O)OC)[C@H]1CC(=O)OC[C@H]1O[C@@H](Oc2ccc(O)cc2)[C@H](O)[C@@H](O)[C@@H]1O | 58.3 |

Second part, the molecule after the results:

| IC50 [µM] | Structure (SMILES) |
| --- | --- |
| 48.9 | C/C=C1/[C@H](O[C@@H]2O[C@H](CO)[C@@H](O)[C@H](O)[C@H]2O)OC=C(C(=O)OC)[C@H]1CC(=O)OC[C@H]1O[C@@H](OCCc2ccc(O)c(O)c2)[C@H](O)[C@@H](O)[C@@H]1O |
| 59.8 | C/C=C1/[C@H](O[C@@H]2O[C@H](CO)[C@@H](O)[C@H](O)[C@H]2O)OC=C(C(=O)OC)[C@H]1CC(=O)OC[C@H]1O[C@@H](OCCc2ccc(O)cc2)[C@H](O)[C@@H](O)[C@@H]1O |
| > 80 | C/C=C1/[C@H](O[C@@H]2O[C@H](CO)[C@@H](O)[C@H](O)[C@H]2O)OC=C(C(=O)OC)[C@H]1CC(=O)O[C@@H]1[C@@H](O)[C@H](O[C@@H]2OC=C(C(=O)OC)[C@@H](CC(=O)OC[C@H]3O[C@@H](OCCc4ccc(O)cc4)[C@H](O)[C@@H](O)[C@@H]3O)/C2=C\C)O[C@H](CO)[C@H]1O |
| > 80 | C/C=C1/[C@H](O[C@@H]2O[C@H](CO)[C@@H](O)[C@H](O)[C@H]2O)OC=C(C(=O)OC)[C@H]1CC(=O)OC[C@H]1O[C@@H](Oc2ccc(/C=C/CO)cc2OC)[C@H](O)[C@@H](O)[C@@H]1O |
| > 80 | C/C=C1/[C@H](O[C@@H]2O[C@H](CO)[C@@H](O)[C@H](O)[C@H]2O)OC=C(C(=O)OC)[C@H]1CC(=O)OCCc1ccc(O)c(O)c1 [OLEUROPEIN] |
